Measurements reported in ChEMBL document CHEMBL2040775, “Evaluation of novel antioxidant triterpenoid saponins from the halophyte Salicornia herbacea” (Bioorg Med Chem Lett, 2012).
Calls of active or inactive are those of the source. The calls are words filed in the database; no cut-off is given here.

Legend:
Format in all cases: functional
[1] = Antioxidant activity assessed as authentic peroxynitrite radical scavenging activity at 50 ug/ml after 5 mins by spectrophotometry
[2] = Antioxidant activity assessed as morpholinosydnonimine-derived peroxynitrite free radical scavenging activity after 5 mins by spectrophotometry
[3] = test system: Radical scavenging activity; experiment: Antioxidant activity assessed as DPPH radical scavenging activity after 30 mins by spectrophotometry
[4] = Antioxidant activity assessed as morpholinosydnonimine-derived peroxynitrite free radical scavenging activity at 50 ug/ml after 5 mins by spectrophotometry
[5] = Antioxidant activity assessed as authentic peroxynitrite radical scavenging activity after 5 mins by spectrophotometry
[6] = test system: Radical scavenging activity; experiment: Antioxidant activity assessed as DPPH radical scavenging activity a 50 ug/ml after 30 mins by spectrophotometry
[7] = test system: Radical scavenging activity; experiment: Antioxidant activity assessed as DPPH radical scavenging activity at 100 ug/ml after 30 mins by spectrophotometry
[8] = test system: Radical scavenging activity; experiment: Antioxidant activity assessed as DPPH radical scavenging activity at 10 ug/ml after 30 mins by spectrophotometry

Structure (SMILES)	IC50 [2] [µM]	IC50 [3] [µM]	IC50 [5] [µM]	Activity [1]	Activity [4]	Activity [6] [%]	Activity [7] [%]	Activity [8] [%]
O=C1O[C@H]([C@@H](O)CO)C(O)=C1O [ASCORBIC ACID]	< 1	< 20	1.5	–	–	95.1	95	94.9
CC(C)(S)[C@@H](N)C(=O)O [PENICILLAMINE]	< 1	–	< 1	–	–	–	–	–
Cc1cc(C(C)(C)C)c(O)c(C(C)(C)C)c1 [BUTYLATED HYDROXYTOLUENE]	–	< 200	–	–	–	54.9	68	39.7

More lines, main results first:

IC50 [2] [µM]	IC50 [3] [µM]	IC50 [5] [µM]	Structure (SMILES)	Activity [1]	Activity [4]	Activity [6] [%]	Activity [7] [%]	Activity [8] [%]
6.6	> 500	4.9	C=C1CC[C@]2(C(=O)O[C@@H]3O[C@H](CO)[C@@H](O)[C@H](O)[C@H]3O)CC[C@]3(C)C(=CC[C@@H]4[C@@]5(C)CC[C@H](O[C@@H]6O[C@H](C(=O)O)[C@@H](O)[C@H](O)[C@H]6O)[C@@](C)(C=O)[C@@H]5CC[C@]43C)[C@@H]2C1	Active	Active	–	–	–
20.4	> 500	21.9	CC1(C)CC[C@]2(C(=O)O)CC[C@]3(C)C(=CC[C@@H]4[C@@]5(C)CC[C@H](O[C@@H]6O[C@H](C(=O)O)[C@@H](O)[C@H](O)[C@H]6O)[C@@](C)(C=O)[C@@H]5CC[C@]43C)[C@@H]2C1	Active	Active	–	–	–
1.4	> 500	7.1	CC1(C)CC[C@]2(C(=O)O[C@@H]3O[C@H](CO)[C@@H](O)[C@H](O)[C@H]3O)CC[C@]3(C)C(=CC[C@@H]4[C@@]5(C)CC[C@H](O[C@@H]6O[C@H](C(=O)O)[C@@H](O)[C@H](O)[C@H]6O)[C@@](C)(C=O)[C@@H]5CC[C@]43C)[C@@H]2C1	Active	Active	–	–	–
< 1	390	< 1	C=C1CC[C@]2(C(=O)O[C@@H]3O[C@H](CO)[C@@H](O)[C@H](O)[C@H]3O)CC[C@]3(C)C(=CC[C@@H]4[C@@]5(C)CC[C@H](O[C@@H]6O[C@H](C(=O)O)[C@@H](O)[C@H](O)[C@H]6O)[C@@](C)(CO)[C@@H]5CC[C@]43C)[C@@H]2C1	Active	Active	–	–	–
